Active and inactive are the calls of the source. The rule behind the calls is not given here.
Tests used:
[1] = Inhibition of concanavalin A-induced cell proliferation of T cells (unknown origin) at 10 uM after 72 hrs by MTT assay; type: functional
[2] = test system: B-cell; assay: Inhibition of LPS-induced cell proliferation of B cells (unknown origin) at 10 uM after 72 hrs by MTT assay; type: functional
[3] = Solubility in water; type: physicochemical
[4] = test system: THP-1; assay: Inhibition of LPS-induced IL6 production in human THP1 cells after 24 hrs; type: functional, cell-based; conditions: THP-1, 24 h
[5] = test system: THP-1; assay: Inhibition of LPS-induced TNFalpha production in human THP1 cells after 24 hrs; type: functional, cell-based; conditions: THP-1, 24 h
[6] = test system: THP-1; assay: Inhibition of LPS-induced IL-1beta production in human THP1 cells at 10 uM after 24 hrs; type: functional; conditions: THP-1, 24 h
[7] = test system: THP-1; assay: Inhibition of LPS-induced nitric oxide production in human THP1 cells at 10 uM after 24 hrs by Griess assay; type: functional; conditions: THP-1, 24 h
[8] = test system: THP-1; assay: Cytotoxicity against human THP1 cells after 24 hrs by MTT assay; type: cell-based; conditions: THP-1, 24 h
[9] = test system: THP-1; assay: Cytotoxicity against human THP1 cells after 48 hrs by MTT assay; type: cell-based; conditions: THP-1, 48 h
[10] = Therapeutic index, ratio of cytotoxic IC50 for human THP1 cells by MTT assay to IC50 for inhibition of LPS-induced IL6 production in human THP1 cells; type: cell-based, THP-1; conditions: read-out: Ratio IC50
[11] = test system: Mus musculus; assay: Antiinflammatory activity in BALB/c mouse assessed as serum TNFalpha level at 10 mg/kg, po qd for 5 days followed by LPS challenge 1 hr after last compound dose on fifth day and measured 4 hrs post LPS challenge by ELISA method (reference value: 717 +/- 218 pg/mL); type: functional
[12] = test system: Mus musculus; assay: Antiinflammatory activity in BALB/c mouse assessed as serum TNFalpha level at 100 mg/kg, po qd for 5 days followed by LPS challenge 1 hr after last compound dose on fifth day and measured 4 hrs post LPS challenge by ELISA method (reference value: 717 +/- 218 pg/mL); type: functional
[13] = test system: Mus musculus; assay: Antiinflammatory activity in BALB/c mouse assessed as serum IL6 level at 10 mg/kg, po qd for 5 days followed by LPS challenge 1 hr after last compound dose on fifth day and measured 4 hrs post LPS challenge by ELISA method (reference value: 410 +/- 95 pg/mL); type: functional
[14] = test system: Mus musculus; assay: Antiinflammatory activity in BALB/c mouse assessed as serum IL6 level at 100 mg/kg, po qd for 5 days followed by LPS challenge 1 hr after last compound dose on fifth day and measured 4 hrs post LPS challenge by ELISA method (reference value: 410 +/- 95 pg/mL); type: functional
[15] = test system: Mus musculus; assay: Antiinflammatory activity in BALB/c mouse assessed as serum nitric oxide level at 10 mg/kg, po qd for 5 days followed by LPS challenge 1 hr after last compound dose on fifth day and measured 4 hrs post LPS challenge by Griess assay (reference value: 6.95 +/- 1.81 uM); type: functional
[16] = test system: Mus musculus; assay: Antiinflammatory activity in BALB/c mouse assessed as serum nitric oxide level at 100 mg/kg, po qd for 5 days followed by LPS challenge 1 hr after last compound dose on fifth day and measured 4 hrs post LPS challenge by Griess assay (reference value: 6.95 +/- 1.81 uM); type: functional
[17] = test system: Mus musculus; assay: Antiarthritic activity in BALB/c mouse assessed as reduction in SRBC-induced blood IFNgamma level administered orally once daily for 14 days measured 4 hrs post last dose by ELISA method; type: functional, organism-based
[18] = test system: Mus musculus; assay: Antiarthritic activity in BALB/c mouse assessed as reduction in SRBC-induced blood IL4 level administered orally once daily for 14 days measured 4 hrs post last dose by ELISA method; type: functional, organism-based
[19] = test system: Mus musculus; assay: Antiarthritic activity in BALB/c mouse assessed as reduction in SRBC-induced blood IL2 level administered orally once daily for 14 days measured 4 hrs post last dose by ELISA method; type: functional, organism-based
[20] = test system: Mus musculus; assay: Immunosuppressive activity in BALB/c mouse assessed as reduction in SRBC-induced humoral immunity by measuring IgM level at 3 to 30 mg/kg, po administered once daily for 14 days measured 4 hrs post last dose; type: functional, organism-based
[21] = test system: Mus musculus; assay: Immunosuppressive activity in BALB/c mouse assessed as reduction in SRBC-induced humoral immunity by measuring IgG level at 3 to 30 mg/kg, po administered once daily for 14 days measured 4 hrs post last dose; type: functional, organism-based
[22] = test system: Mus musculus; assay: Immunosuppressive activity in BALB/c mouse assessed as reduction in SRBC-induced DTH response at 3 to 30 mg/kg, po administered once daily for 14 days measured 4 hrs post last dose; type: functional, organism-based
[23] = test system: Mus musculus; assay: Antiarthritic activity in DBA/1J mouse collagen-induced arthritis model assessed as reduction in paw swelling at 30 mg/kg, po administered once daily for 49 days starting from onset of disease; type: functional; conditions: 1176 h
[24] = test system: Mus musculus; assay: Antiarthritic activity in DBA/1J mouse collagen-induced arthritis model assessed as reduction in anticollagen antibody IgG1 level at 3 to 30 mg/kg, po administered once daily for 49 days starting from onset of disease and measured after 14 days of disease onset by ELISA method; type: functional, organism-based
[25] = test system: Mus musculus; assay: Antiarthritic activity in DBA/1J mouse collagen-induced arthritis model assessed as reduction in anticollagen antibody IgG2a level at 3 to 30 mg/kg, po administered once daily for 49 days starting from onset of disease and measured after 14 days of disease onset by ELISA method; type: functional, organism-based
[26] = test system: Mus musculus; assay: Antiarthritic activity in DBA/1J mouse collagen-induced arthritis model assessed as reduction in anticollagen antibody IgG1 level at 3 to 30 mg/kg, po administered once daily for 49 days starting from onset of disease and measured after 49 days of disease onset by ELISA method; type: functional, organism-based
[27] = test system: Mus musculus; assay: Antiarthritic activity in DBA/1J mouse collagen-induced arthritis model assessed as reduction in anticollagen antibody IgG2a level at 3 to 30 mg/kg, po administered once daily for 49 days starting from onset of disease and measured after 49 days of disease onset by ELISA method; type: functional, organism-based
[28] = test system: Mus musculus; assay: Antiarthritic activity in DBA/1J mouse collagen-induced arthritis model assessed as reduction in TNFalpha level at 3 to 30 mg/kg, po administered once daily for 49 days starting from onset of disease and measured after 3 to 49 days of disease onset by ELISA method; type: functional, organism-based
[29] = test system: Mus musculus; assay: Antiarthritic activity in DBA/1J mouse collagen-induced arthritis model assessed as reduction in IL6 level at 3 to 30 mg/kg, po administered once daily for 49 days starting from onset of disease and measured after 3 to 49 days of disease onset by ELISA method; type: functional, organism-based
[30] = test system: Mus musculus; assay: Antiarthritic activity in DBA/1J mouse collagen-induced arthritis model assessed as reduction in IL-1beta level at 3 to 30 mg/kg, po administered once daily for 49 days starting from onset of disease and measured after 3 to 49 days of disease onset by ELISA method; type: functional, organism-based
[31] = biological target: Inhibitor of NF-kappa-B kinase (IKK) (Homo sapiens) (UniProt O14920+O15111+Q9Y6K9); assay: Inhibition of IKKbeta expression in human THP1 cells at 20 to 100 uM by Western blotting method; type: functional, cell-based; conditions: THP-1
[32] = Solubility in PBS buffer; type: physicochemical
[33] = Solubility in SGF solution; type: physicochemical
[34] = Solubility in SIF solution; type: physicochemical

COc1c(O)c(CN2CCC[C@H]2CO)c2c(c1O)[C@@H]1O[C@H](CO)[C@@H](O)[C@H](O)[C@H]1OC2=O
inhibition at 10 µM [1]: 37.5% | inhibition at 10 µM [2]: 31.6% | solubility [3]: > 1500 µg/mL | IC50 [4]: 745 nM | IC50 [5]: 13500 nM

COc1c(O)c(CN2CCC(Cc3ccccc3)CC2)c2c(c1O)[C@@H]1O[C@H](CO)[C@@H](O)[C@H](O)[C@H]1OC2=O
inhibition at 10 µM [1]: 16% | inhibition at 10 µM [2]: 18.2% | solubility [3]: > 1500 µg/mL | IC50 [4]: 371 nM | IC50 [5]: > 30000 nM

COc1c(O)c(CN2CCCCC2)c2c(c1O)[C@@H]1O[C@H](CO)[C@@H](O)[C@H](O)[C@H]1OC2=O
inhibition at 10 µM [1]: 13% | inhibition at 10 µM [2]: 34.8% | solubility [3]: > 1500 µg/mL | IC50 [4]: 317 nM | IC50 [5]: > 30000 nM

COc1c(O)c(CN2C[C@@H](O)CC2C(=O)O)c2c(c1O)[C@@H]1O[C@H](CO)[C@@H](O)[C@H](O)[C@H]1OC2=O (some centres undefined)
inhibition at 10 µM [1]: 6.5% | inhibition at 10 µM [2]: 11.4% | solubility [3]: > 1500 µg/mL | IC50 [4]: 322 nM | IC50 [5]: > 30000 nM

CCN1CCN(Cc2c(O)c(OC)c(O)c3c2C(=O)O[C@@H]2[C@@H](O)[C@H](O)[C@@H](CO)O[C@@H]32)CC1
inhibition at 10 µM [1]: 34.2% | inhibition at 10 µM [2]: 44.2% | solubility [3]: > 1500 µg/mL | IC50 [4]: 195 nM | IC50 [5]: > 30000 nM

COc1c(O)c(CN(C)CC(=O)O)c2c(c1O)[C@@H]1O[C@H](CO)[C@@H](O)[C@H](O)[C@H]1OC2=O
inhibition at 10 µM [1]: 4% | inhibition at 10 µM [2]: 17% | solubility [3]: > 1500 µg/mL | IC50 [4]: 1630 nM | IC50 [5]: > 30000 nM

COc1c(O)c(CN2CCC[C@H]2C(=O)O)c2c(c1O)[C@@H]1O[C@H](CO)[C@@H](O)[C@H](O)[C@H]1OC2=O
inhibition at 10 µM [1]: 17.3% | inhibition at 10 µM [2]: 28.2% | solubility [3]: > 1500 µg/mL | IC50 [4]: 918 nM | IC50 [5]: 25500 nM

CCCN(CCC)Cc1c(O)c(OC)c(O)c2c1C(=O)O[C@@H]1[C@@H](O)[C@H](O)[C@@H](CO)O[C@@H]21
inhibition at 10 µM [1]: 10.3% | inhibition at 10 µM [2]: 2.8% | solubility [3]: > 1500 µg/mL | IC50 [4]: 361 nM | IC50 [5]: > 30000 nM

COc1c(O)c(CN2CCN(C)CC2)c2c(c1O)[C@@H]1O[C@H](CO)[C@@H](O)[C@H](O)[C@H]1OC2=O
inhibition at 10 µM [1]: 36.9% | inhibition at 10 µM [2]: 49% | solubility [3]: > 1500 µg/mL | IC50 [4]: 141 nM | IC50 [5]: > 30000 nM | inhibition at 10 µM [6]: 41% | inhibition at 10 µM [7]: 41% | IC50 [8]: 107000 nM | IC50 [9]: 68000 nM | selectivity ratio [10]: > 400 | Activity [11]: 672 pg/mL | Activity [12]: 398 pg/mL | Activity [13]: 282 pg/mL | Activity [14]: 58 pg/mL | Activity [15]: 2.87 µM | Activity [16]: 1.24 µM | inhibition [17]: Dose-dependent effect | inhibition [18]: Dose-dependent effect | inhibition [19]: Dose-dependent effect | inhibition [20]: Active | inhibition [21]: Active | inhibition [22]: Active | inhibition in vivo at 30 mg/kg [23]: 28% | inhibition [24]: Active | inhibition [25]: Active | inhibition [26]: Active | inhibition [27]: Active | inhibition [28]: Active | inhibition [29]: Active | inhibition [30]: Active | inhibition [31]: Active | solubility [32]: > 1500 µg/mL | solubility [33]: > 1500 µg/mL | solubility [34]: > 1500 µg/mL

COc1c(O)c(CN2CCOCC2)c2c(c1O)[C@@H]1O[C@H](CO)[C@@H](O)[C@H](O)[C@H]1OC2=O
inhibition at 10 µM [1]: 37.5% | inhibition at 10 µM [2]: 31.6% | solubility [3]: > 1500 µg/mL | IC50 [4]: 1860 nM | IC50 [5]: 16000 nM

COc1c(O)c(CN2CCCC2)c2c(c1O)[C@@H]1O[C@H](CO)[C@@H](O)[C@H](O)[C@H]1OC2=O
inhibition at 10 µM [1]: 14.8% | inhibition at 10 µM [2]: 2.5% | solubility [3]: > 1500 µg/mL | IC50 [4]: 755 nM | IC50 [5]: > 30000 nM

COc1c(O)c(CN(C)C)c2c(c1O)[C@@H]1O[C@H](CO)[C@@H](O)[C@H](O)[C@H]1OC2=O
inhibition at 10 µM [1]: 21.1% | inhibition at 10 µM [2]: 44% | solubility [3]: > 1500 µg/mL | IC50 [4]: 211 nM | IC50 [5]: > 30000 nM

CCOC(=O)N1CCN(Cc2c(O)c(OC)c(O)c3c2C(=O)O[C@@H]2[C@@H](O)[C@H](O)[C@@H](CO)O[C@@H]32)CC1
inhibition at 10 µM [1]: 27% | inhibition at 10 µM [2]: 9% | solubility [3]: > 1500 µg/mL | IC50 [4]: 177 nM | IC50 [5]: > 30000 nM

COc1c(O)c(CN2CCC(c3ccccc3)CC2)c2c(c1O)[C@@H]1O[C@H](CO)[C@@H](O)[C@H](O)[C@H]1OC2=O
inhibition at 10 µM [1]: 37.2% | inhibition at 10 µM [2]: 28.2% | solubility [3]: > 1500 µg/mL | IC50 [4]: 351 nM | IC50 [5]: > 30000 nM

Source: ChEMBL document CHEMBL3351580, “Pyrano-isochromanones as IL-6 inhibitors: synthesis, in vitro and in vivo antiarthritic activity” (J Med Chem, 2014)
